Measured values taken from US6835754B2, “Use of aryl nitrone compounds in methods for treating neuropathic pain” (Renovis, Inc., priority 2001, dated 2004).

Test system: male Swiss Webster mice, phenylquinone-induced writhing
Assay: Phenylquinone (PQ) writhing assay, % inhibition (Swiss Webster mice)
Assay type: in vivo
Details: Mus musculus, standard, read-out: % Inhibition of Writhing Response

Structure (SMILES)	inhibition at 1 mg/kg (1 mg/kg)	inhibition at 3 mg/kg (3 mg/kg)
C[C@@H]1C[C@H]2[C@@H]3CCC4=CC(=O)C=C[C@]4(C)[C@@]3(F)[C@@H](O)C[C@]2(C)[C@@]1(O)C(=O)CO [Dexamethasone]	62%	
COc1ccc2c(c1)c(CC(=O)O)c(C)n2C(=O)c1ccc(Cl)cc1 [Indomethacin]		93%
